Assays:
clot-bound fXa = target: T1, clot-bound fXa (Homo sapiens, UniProt P00742); test: inhibition of plasma clot-bound factor Xa (Methods M1, M2); assay type: biochemical; details: text b187, well below
T1 construct: from tissue; host or cells: clot of recalcified human platelet-rich plasma
Experimental: Plasma-clot was obtained by recalcificating platelet-rich human plasma, and fibrin gel by clotting human fibrinogen with human thrombin. For the activity measures of fXa and thrombin Z-D-Arg-Gly-Arg-pNA or Tos-Gly-Pro-Arg-pNA substrates were used in agreement with Methods M1-M3.
Preparation of Clots from Human Plasma
a) Platelet-rich plasma is prepared by centrifuging a 9:1 mixture of human blood and 3.8% sodium citrate solution for 5 min. at 240×g.
b) 200 μl platelet-rich plasma and 80 μl 40 mM CaCl2 solution are allowed to stand at room temperature for 1 hour. The thus-formed clot is washed with 6×2 ml of 0.9% NaCl solution with gentle stirring to remove the residual enzymes (thrombin and factor Xa). The washing medium is assayed for thrombin-like activity as follows:
c) To 400 μl of washing medium 100 μl of 1 mM Tos-Gly-Pro-Arg-pNA substrate solution is added, the mixture is incubated for 30 min at 37° C., then the reaction is stopped with 100 μl of 50% acetic acid. From this mixture 150 μl aliquots are applied onto a 96-well microtitre plate and the extinction coefficients are measured at 405 nm (ELISA READER SLT Laborinstrument GmbH, Austria). […]
c) From each reaction vessel 150 μl is applied onto a 96 well microtitre plate and extinction coefficients are measured at 405 nm (ELISA READER SLT Laborinstrument GmbH, Austria). […]

[1] = tested on: New Zealand white rabbits; test: ex vivo APTT in citrate plasma of rabbits after p.o. dosing; set-up: species or system rabbit; details: p.o. 5 mg/kg
Experimental: (§1) The anticoagulant and platelet aggregation inhibiting effect of the compounds of general formula (I) was studied in New Zealand white rabbits ex vivo according to D. Bagdy et al. [Thromb. Haemost. 67, 357 (1992)]. The compounds were dissolved in buffered isotonic saline solution and administered i.v. (0,04-5.0 mg/kg) or by infusion (0.25-5.0 mg/kg/h) or subcutaneously (0.5-6.0 mg/kg) or p.o. (2.5-20 mg/kg). The effect of the compounds was detectable already within 30 minutes following p.o. administration, peak values were attained after 60-180 minutes and the therapeutic level was maintained dose-dependently for 3→6 hours.
(§2) The in vivo effect of ethoxycarbonyl-3-cyclobutyl-D-alanyl-L-prolyl-L-arginine aldehyde (1) is presented in detail in Tables 6 and 7. The corresponding values of C1 are listed as controls. The compound was administered p.o. in doses of 5 mg/kg. The blood samples drawn from the caudal vein in every 30-60 minutes were analysed. The whole blood clotting time (WBCT) and the inhibition of thrombin-induced blood platelet aggregation (PAI) were determined. The activated partial thromboplastin time (APTT) and the thrombin time (TT) in the citrate plasma obtained from the blood sample were also measured. The APTT and TT values are compiled in Table 6 and the WBCT and PAI values in Table 7.

[2] = tested on: New Zealand white rabbits; test: ex vivo whole blood clotting time (WBCT) in rabbits after p.o. dosing; set-up: species or system rabbit; details: p.o. 5 mg/kg
Experimental: as §1, §2

T1 sequence (P00742 235-488 limits assumed): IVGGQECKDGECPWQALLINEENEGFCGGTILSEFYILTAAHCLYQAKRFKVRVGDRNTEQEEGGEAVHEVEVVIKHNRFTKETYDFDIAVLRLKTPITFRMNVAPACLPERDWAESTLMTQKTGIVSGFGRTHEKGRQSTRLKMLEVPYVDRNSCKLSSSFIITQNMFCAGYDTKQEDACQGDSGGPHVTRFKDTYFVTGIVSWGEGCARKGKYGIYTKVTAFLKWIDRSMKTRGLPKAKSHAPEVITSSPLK
T1 sequence (P00742 41-179 partner limits assumed): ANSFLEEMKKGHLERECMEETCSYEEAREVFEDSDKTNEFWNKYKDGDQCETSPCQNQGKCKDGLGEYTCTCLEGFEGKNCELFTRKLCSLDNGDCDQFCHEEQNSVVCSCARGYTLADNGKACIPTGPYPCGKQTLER

With `CCOC(=O)N[C@H](CC1CCC1)C(=O)N1CCC[C@H]1C(=O)N[C@H](C=O)CCCNC(=N)N` [Example 1, Ethoxycarbonyl-3-cyclobutyl-D-alanyl-L-prolyl-L-arginine aldehyde] the IC50 (clot-bound fXa) was less than 1000 nM, the “APTT relative clotting time” value ([1]; 0 min) was 1.0 and the “APTT relative clotting time” value ([1]; 30 min) was 1.73 ± 0.47. The “APTT relative clotting time” value ([1]; 45 min) was 1.84 ± 0.50, the “APTT relative clotting time” value ([1]; 60 min) was 1.94 ± 0.51 and the “APTT relative clotting time” value ([1]; 90 min) was 1.92 ± 0.31. The “APTT relative clotting time” value ([1]; 120 min) was 1.75 ± 0.26, the “APTT relative clotting time” value ([1]; 180 min) was 1.59 ± 0.12 and the “APTT relative clotting time” value ([1]; 240 min) was 1.38 ± 0.08. The “APTT relative clotting time” value ([1]; 300 min) was 1.28 ± 0.08, the “WBCT relative clotting time” value ([2]; 0 min) was 1.0 and the “WBCT relative clotting time” value ([2]; 30 min) was 1.52 ± 0.22. For the same compound, the “WBCT relative clotting time” value ([2]; 45 min) was 1.58 ± 0.17, the “WBCT relative clotting time” value ([2]; 60 min) was 1.88 ± 0.45 and the “WBCT relative clotting time” value ([2]; 90 min) was 1.73 ± 0.33. The “WBCT relative clotting time” value ([2]; 120 min) was 1.98 ± 0.30, the “WBCT relative clotting time” value ([2]; 180 min) was 1.43 ± 0.13 and the “WBCT relative clotting time” value ([2]; 240 min) was 1.12 ± 0.24. The “WBCT relative clotting time” value ([2]; 300 min) was 1.18 ± 0.08.

From US6235707A, “Anticoagulant peptidyl-arginine aldehyde derivatives” (Gyogyszerkutato Intezet Kft., priority 1996, dated 2001)
